Patent US20180185448A1, “COMPOSITION AND METHOD FOR INDUCING ANTI-INFLAMMATORY RESPONSE” (Vital Therapies, Inc., priority 2015, published 2018)
Entries after “also recorded” stand apart in the source; their conditions may differ.

Columns and labels:
[1] = tested on: monolayer C3A cells; experiment: Monolayer C3A cells incubated with inflammatory cytokines (IL-6, IL-1β, TNF-α); secreted factors assayed in conditioned media by ELISA/multiplex; type: cell-based, human; conditions: for AAT secretion at 54 h: 54 h compared with 24 h; for TNF-α secretion: 24 and 48 h; for IL-10 secretion / IL-10 secretion at 48 hr: 10 ng/mL; for IL-10 secretion: 24 h vs controls; for IL-10 secretion at 48 hr: 48 hr compared with 24 h
Procedure: (§1) Conditioned media from C3A cells of an active cartridge of a treatment system of the disclosure were assayed for APP, cytokines, and other mediators that affect inflammation using singleplex ELISA kits (R&D Systems, abcam), chemiluminescent multiplex array kits (Aushon) and/or contracted services (Myriad Rules Based Medicine). Inflammatory cytokines reported to be present in hepatitis patient serum (IL-6 [0, 1, 10, 100 ng/mL]±IL-1β [0, 1, 10, 100 ng/mL]) were incubated with monolayer, or C3A cells recovered from the treatment system, for 24 or 54 h, and conditioned media were assayed for the APP IL-1 receptor antagonist (IL-1Ra), alpha-1-antitrypsin (AAT), and albumin. Lipopolysaccharide (LPS) (0, 0.01, 0.1, 1, 10 EU/mL) was incubated with monolayer C3A cells for 24 h and assayed for APP.
Conditioned media from active cartridges including qualified C3A cells were assayed for APP, cytokines, and other mediators that affect inflammation. Inflammatory cytokines present in patient serum (IL-6±IL-1β) were incubated with monolayer, or C3A cells recovered from the system, for 24 or 54 h and media assayed for IL-1 receptor antagonist (IL-1Ra) and alpha-1-antitrypsin (AAT).
(§2) C3A cells of the invention were plated in monolayer and incubated with LPS or with inflammatory cytokines (IL-6, IL-1β, and/or TNF-α) for 24, 48, or 54 h. Cytokines were dosed individually or in combination at 0, 1, 10, or 100 ng/mL as indicated in each figure. Separate C3A cells were incubated with LPS at 0, 0.01, 0.1, 1, or 10 EU/mL for 24 h.
(§3) Additionally, intact C3A tissue (C3A cells cultured three-dimensionally between polysulfone hollow fibers) was excised from C3A cell cartridges and dosed in conjunction with 10 ng/mL IL-1β and 10 ng/mL IL-6 for 24 h. The supernatants from these monolayer C3A cell and ELAD C3A tissue experiments were assayed for IL-1Ra, AAT, IL-10, or albumin via in-house and commercial ELISA kits (R&D Systems, abcam), contracted services for multiplex ELISAs (Myriad), or chemiluminescent multiplex assay kits (Aushon).

[2] = tested on: monolayer C3A cells; experiment: Monolayer C3A cells incubated with LPS for 24 h; IL-1Ra and AAT assayed in media; type: cell-based, human
Procedure: as §1, §2, §3

[3] = Example 1, monolayer C3A cultures
[4] = Example 3, monolayer C3A cells 1.3×10^5 cells/cm, 24 and 54 h, n=3
[5] = Examples 1-2, monolayer C3A cells, 24 h, single replicates of pooled triplicate wells
[6] = Examples 1-2, monolayer C3A cells
[7] = FIG. 18 experiment, monolayer C3A cells 2.6×10^5 cells/cm^2, TNF-α 1, 10 or 100 ng/mL, IL-1β 10 ng/mL
[8] = monolayer C3A cells 2.6×10^5 cells/cm^2
[9] = monolayer C3A cells, IL-6 ± IL-1β 1-100 ng/mL, 24 h (or time not stated)
[10] = Example 3, monolayer C3A cells 1.3×10^5 cells/cm^2
[11] = Example 3, monolayer, 24, 48 hr
[12] = Example 3, monolayer, 24 hr, 48 hr

**Q.** What does the source list for Interleukin-1 beta [IL-1β]?
**A.** G-CSF increase [1, 3]: 50 fold; IL-8 increase [1, 3]: 2,000 fold; SCF increase [1, 3]: 100 fold; TNFα increase [1, 3]: 25 fold; AAT secretion [1, 4]: no apparent effect; also recorded: not affected; IL-6-induced fibrinogen expression on addition of IL-1β ([1]; Example 3, monolayer C3A cells, IL-1β added to IL-6): abrogated; AAT secretion [1, 5]: dose-dependent upregulation; also recorded: upregulated; AAT secretion ([1]; Examples 1-2, monolayer C3A cells, 24 h, single replicates of pooled triplicate wells, listed as IL-1 β): dose-dependent up-regulation; AAT secretion at 54 h [1, 6]: further increased; also recorded: increases with exposure time; AAT secretion at 54 h ([1]; Examples 1-2, monolayer C3A cells, listed as IL-1 β): further increased; IL-1Ra secretion [1, 7]: increased; also recorded: upregulated; TNF-α secretion [1, 8]: upregulated; also recorded: low, yet elevated; IL-10 secretion ([1]; monolayer C3A cells): increased above the controls; also recorded: upregulated; IL-10 secretion at 48 hr ([1]; monolayer C3A cells): further increased; IL-1Ra secretion [1, 9]: did not increase

**Q.** For Interleukin-6 [IL-6], which IL-10 increase [1, 3] is on record?
**A.** 10 fold

**Q.** And the IL-18 increase [1, 3]?
**A.** 9 fold

**Q.** What about the MCP-1 increase [1, 3] of the same substance?
**A.** 15 fold

**Q.** What about the TNF-β increase [1, 3] of the same substance?
**A.** 12 fold

**Q.** And the fibrinogen increase [1, 3]?
**A.** 6 fold

**Q.** And the AAT secretion [1, 4]?
**A.** no apparent effect; also recorded: not affected

**Q.** What about the fibrinogen secretion [1, 10] of the same substance?
**A.** increased

**Q.** What about the α-2 macroglobulin secretion [1, 10] of the same substance?
**A.** increased; also recorded: modestly upreguated

**Q.** And the “Fibrinogen increase vs. control” value [1, 11]?
**A.** ~6 fold

**Q.** What about the “IL-18 increase vs. control” value [1, 11] of the same substance?
**A.** ~9 fold

**Q.** What about the “Monocyte chemotactic protein 1 (MCP-1) increase vs. control” value [1, 11] of the same substance?
**A.** ~15 fold

**Q.** What about the “TNF-β increase vs. control” value [1, 11] of the same substance?
**A.** ~12 fold

**Q.** And the “Granulocyte-colony stimulating factor (G-CSF) increase vs. control” value ([1]; Example 3, monolayer, 24 hr)?
**A.** ~50 fold

**Q.** What about the “IL-7 increase vs. control” value ([1]; Example 3, monolayer, 24 hr) of the same substance?
**A.** ~10 fold

**Q.** What about the “IL-10 increase vs. control” value ([1]; Example 3, monolayer, 24 hr) of the same substance?
**A.** ~10 fold

**Q.** What about the “IL-8 increase vs. control” value [1, 12] of the same substance?
**A.** ~2,000 fold

**Q.** What about the “Stem cell factor (SCF) increase vs. control” value [1, 12] of the same substance?
**A.** ~100 fold

**Q.** And the “TNFα increase vs. control” value [1, 12]?
**A.** ~25 fold

**Q.** And the “Granulocyte-colony stimulating factor (G-CSF) increase vs. control” value ([1]; Example 3, monolayer, 48 hr)?
**A.** ~75 fold

**Q.** And the “IL-7 increase vs. control” value ([1]; Example 3, monolayer, 48 hr)?
**A.** ~14 fold

**Q.** What about the “Granulocyte-colony stimulating factor (G-CSF) increase with IL-6 vs. control” value ([1]; Example 3, monolayer, 24 hr) of the same substance?
**A.** ~300 fold

**Q.** What about the “Granulocyte-colony stimulating factor (G-CSF) increase with IL-6 vs. control” value ([1]; Example 3, monolayer, 48 hr) of the same substance?
**A.** ~500 fold

**Q.** What about the AAT secretion [1, 5] of the same substance?
**A.** dose-dependent upregulation; also recorded: upregulated; also recorded: dose-dependent up-regulation

**Q.** And the “AAT secretion at 54 h” value [1, 6]?
**A.** further increased; also recorded: increases with exposure time

**Q.** What about the TNF-α secretion [1, 8] of the same substance?
**A.** upregulated; also recorded: low, yet elevated

**Q.** What about the IL-10 secretion ([1]; monolayer C3A cells) of the same substance?
**A.** increased above the controls; also recorded: upregulated

**Q.** And the “IL-10 secretion at 48 hr” value ([1]; monolayer C3A cells)?
**A.** further increased

**Q.** What about the IL-1Ra secretion [1, 9] of the same substance?
**A.** did not increase

**Q.** TNF-α was tested. Which “IL-1Ra secretion at the highest dose” value ([1]; FIG. 18 experiment, TNF-α 100 ng/mL) did it give?
**A.** observed decrease

**Q.** What about the IL-1Ra secretion [1, 7] of the same substance?
**A.** did not increase; also recorded: not TNF-α alone

**Q.** What about the APP expression ([1]; TNF-α, except when dosed 10,000-fold higher than measured in culture) of the same substance?
**A.** did not significantly impact

**Q.** How did the IL-1Ra secretion ([2]; LPS 0.01, 0.1, 1, 10 EU/mL) turn out when lipopolysaccharide [LPS] was run?
**A.** increased; also recorded: upregulated

**Q.** What about the AAT levels ([2]; LPS 0.01-10 EU/mL, higher concentrations = 1 and 10 EU/mL) of the same substance?
**A.** upregulated; also recorded: increased only at higher concentrations

**Q.** What about the IL-1Ra secretion increase ([2]; LPS at all concentrations evaluated (0.01, 0.1, 1, and 10 EU/mL)) of the same substance?
**A.** approximately 2 fold
